In patent publication US4990663A, “Process for preparing halogenated aromatic amines” (E. I. Du POnt de Nemours and Company, priority 1989, dated 1991):

Tests used:
[1] = dechlorination in platinum-catalyzed hydrogenation, semi-continuous reactor; details: for Dechlor: ppm based on weight of product amine
Protocol: The autoclave was sealed, the air was displaced with nitrogen and the autoclave was pressure tested. The nitrogen was replaced with hydrogen and the contents of the autoclave were heated to 80° C. The agitation was started and the contents of the autoclave were heated to 100° C. The pressure control regulator on the hydrogen feed was set at 540 psig and this pressure maintained in the autoclave throughout the reduction. The addition of 510 g of 3,4-dichloro-1-nitrobenzene crude (containing 11% 2,3- and 1% 2,5- isomers) was started. During the simultaneous feeding of the hydrogen and the nitroaromatic, the temperature was allowed to rise to 135° C. where it was controlled by the automated cooling water system. The addition of the nitroaromatic was completed in about 120 minutes. […] Heating at reaction conditions was continued for an additional 15 minutes. The autoclave was cooled, the hydrogen was displaced with nitrogen and the organic phase was separated.

[2] = per literature data; cited from earlier work
[3] = dehalogenation inhibitor evaluation in laboratory batch hydrogenation
Protocol: The autoclave was sealed, the air was displaced with nitrogen and the autoclave was pressure tested. The nitrogen was replaced with hydrogen and the contents of the autoclave were heated to 75° C. The agitation was started and the pressure control regulator on the hydrogen feed was set to a maximum of 500 psig. […] The reduction was terminated. The autoclave was cooled, the hydrogen was displaced with nitrogen and the organic phase was separated.
Hydrogenation temperature was controlled at 110° C. instead of 96° C.

[4] = storage stabilization of molten 3,4-dichloroaniline at 110° C.; details: 0.43 wt. % additive
Protocol: Round bottom drying ampuls of 20 ml capacity were dried by heating and were then cooled under nitrogen. Ten ml of test samples consisting of molten 3,4-dichloroaniline containing candidate stabilizers were pipetted into the ampuls which were sealed under nitrogen and stored in a 110° C. oven. Periodically an ampul of each sample was removed from the oven and evaluated.

[5] = 2.1 mole % inhibitor based on nitroaromatic
[6] = 2.0 mole % inhibitor based on nitroaromatic

Work on `C1COCCN1` [morpholine, reference compound] yielded a Dechlor [1, 5] of 548 ppm.
For `NCCCO` [3-amino-1-propanol], the Dechlor [1, 6] is given as 423 ppm and the pKb [2] is given as 4.1.
With `COCCN` [2-methoxyethylamine] the Dechlor [1, 6] was 282 ppm, the “dechlorinated derivatives in product amine” value ([3]; Example 10, 1.0 weight % inhibitor, otherwise as Example 8) was 0.05% and the dehalogenation inhibition ([3]; batch, similar conditions (96° C.)) was “good dehalogenation inhibitor being approximately equivalent to morpholine”. For the same compound, the Color ([4]; 7 days) was “Lt yellow”, the “High Boilers” value ([4]; 7 days) was 0.05 Weight % and the Color ([4]; 60 days) was “Yellow”. The “High Boilers” value ([4]; 60 days) was 0.07 Weight % and the pKb [2] was 4.6.
In the case of `CC(O)CN` (stereo not shown) [1-amino-2-propanol], the Dechlor ([1]; 1.5 mole % inhibitor based on nitroaromatic) is reported as 470 ppm.
With `NCCO` [ethanolamine] the “dechlorination (total of aniline and monochloroanilines in the product calculated as p-chloroaniline)” value ([1]; Example 1, 0.4 weight % and 1.2 mole % inhibitor based on nitroaromatic, 135° C., 540 psig) was “less than 235 ppm”, the “dechlorination (total of aniline and monochloroanilines calculated as p-chloroaniline)” value ([3]; Example 8, 0.5 weight % inhibitor, 96° C., 7.9 mg platinum, terminated at 188 minutes) was 0.03% and the “dechlorinated derivatives in product amine” value ([3]; Example 9, 0.375 weight % inhibitor, 110° C., 15.8 mg platinum) was 0.003%. For the same compound, the dehalogenation ([3]; batch, 96° C., concentrations near optimum for semicontinuous unit) was “very low”.
For `OCCNCCO` [diethanolamine], the Dechlor [1, 5] is listed as 344 ppm and the pKb [2] is listed as 5.0.
In the case of `COCCCN` [3-methoxy-1-propylamine], the Dechlor ([1]; 2.5 mole % inhibitor based on nitroaromatic) is reported as 438 ppm.
